From article PMC7864192 (Cancers, 2021)
Read-outs that look alike come from different tables or passages of the source.

Tests used:
[1] = tested on: GCPA108 T3.IV patient-derived AGCT cell line; experiment: Cell viability drug screen (Cell Titer Glo 2.0, 72 h), mono- and combination therapy, GCPA108T3.IV; settings: GCPA108T3IV
[2] = tested on: GCPA096 T1.I patient-derived AGCT cell line; experiment: Cell viability drug screen (Cell Titer Glo 2.0, 72 h), mono- and combination therapy, GCPA096T1.I; settings: GCPA096T1I
Procedure: (§1) Cell lines were seeded at a density of 500 cells/well in 40 uL in 384-well plates (Corning, NY, USA) with the Multidrop™ cell dispenser (Thermo Fischer Scientific, Waltham, MA, USA) and sealed with Breathe-Easy® membrane (Sigma-Aldrich, St. Louis, MO, USA) to prevent evaporation. […] For each cell line, three biological repeats and two technical repeats each were performed in order to ensure the validity of the drug screens. […] Subsequently, 11 drugs and 12 drug combinations were dispensed and all wells (excluding blanks and non-DMSO control wells) were normalized to 1% DMSO using the HP Tecan D300e Digital Dispenser (Hewlett-Packard, Palo Alto, CA, USA). […] Next, the plates were covered with the Breathe-Easy membrane and incubated. After 72 h, the Multidrop dispensed 15 uL per well of Cell Titer Glo 2.0 (Thermo Fischer Scientific, Waltham, MA, USA) and plates were incubated in the dark for 10 min. After incubation, luminescence excitation was assessed in the Spectramax reader (Molecular Devices, San Jose, CA, USA) (top read, luminescence excitation at 500 nm) and raw data were processed in Microsoft Excel to subtract background luminescence. The Z-factor, a mathematical method used to quantify the quality of a drug screen based on the calculation of the separation band between the values of the positive and negative controls, was utilized to assess the quality of drug screens [54]. Screens with a Z-factor value of >0.5 were used for further analysis.
(§2) Overall cell survival (in %) was plotted against the drug concentration range of each drug (in log10[μM]) using GraphPad Prism 8.3.1. Values that exceeded 100% survival (within +20% biological deviation) were normalized to 100% survival. Similarly, values below 0% cell survival (within −20% biological deviation) were normalized to 0% survival. Values exceeding this deviation were excluded. Dose–response curves were obtained using the model “log(inhibitor) vs. variable slope (normalized response)” to fit the dose–response curves and R^2 values were used to indicate how well the model fit the data (Supplementary Materials Figures S4 and S5). […] The IC50 values were calculated based on the Chou–Talalay method using Compusyn software [55]. For anti-hormonal treatment, mostly provided as maintenance therapy, we used IC10 values in addition to the IC50.
(§3) In addition to the 11 monotherapies, 12 drug combinations were tested (Table 3) simultaneously with the individual drug treatments in the same 384-well plate. […] Synergy was evaluated using the mass action law, a systematic analysis assessing dose–response dynamics in a cost-effective manner [56, 57]. The combination index (CI) was used to indicate antagonistic (CI > 1) additive (CI = 1) and synergistic (CI < 1) effects [55].

[3] = tested on: GCPA096 T1.V patient-derived AGCT cell line; experiment: Cell viability drug screen (Cell Titer Glo 2.0, 72 h), mono- and combination therapy, GCPA096T1.V; settings: GCPA096T1V
Procedure: (§4) Cell lines were seeded at a density of 500 cells/well in 40 uL in 384-well plates (Corning, NY, USA) with the Multidrop™ cell dispenser (Thermo Fischer Scientific, Waltham, MA, USA) and sealed with Breathe-Easy® membrane (Sigma-Aldrich, St. Louis, MO, USA) to prevent evaporation. The SVOG-3e line was seeded at 1000 cells/well due to contact-dependent growth requirements. For each cell line, three biological repeats and two technical repeats each were performed in order to ensure the validity of the drug screens. […] Subsequently, 11 drugs and 12 drug combinations were dispensed and all wells (excluding blanks and non-DMSO control wells) were normalized to 1% DMSO using the HP Tecan D300e Digital Dispenser (Hewlett-Packard, Palo Alto, CA, USA). All drugs were applied in linear concentration ranges (Table 2), including 16 data points to enable combination drug testing at constant ratios (Table 3). Next, the plates were covered with the Breathe-Easy membrane and incubated. After 72 h, the Multidrop dispensed 15 uL per well of Cell Titer Glo 2.0 (Thermo Fischer Scientific, Waltham, MA, USA) and plates were incubated in the dark for 10 min. After incubation, luminescence excitation was assessed in the Spectramax reader (Molecular Devices, San Jose, CA, USA) (top read, luminescence excitation at 500 nm) and raw data were processed in Microsoft Excel to subtract background luminescence. […] Screens with a Z-factor value of >0.5 were used for further analysis.
(§5) Overall cell survival (in %) was plotted against the drug concentration range of each drug (in log10[μM]) using GraphPad Prism 8.3.1. Values that exceeded 100% survival (within +20% biological deviation) were normalized to 100% survival. Similarly, values below 0% cell survival (within −20% biological deviation) were normalized to 0% survival. Values exceeding this deviation were excluded. Dose–response curves were obtained using the model “log(inhibitor) vs. variable slope (normalized response)” to fit the dose–response curves and R^2 values were used to indicate how well the model fit the data (Supplementary Materials Figures S4 and S5). […] The maximum plasma concentration (Cmax) and the plasma concentration at steady state (Css) were used as toxicity thresholds. The Cmax was utilized for drugs in which short, high-dosage time courses are required, while the Css was used for maintenance therapy regimes such as anti-hormonal treatment. […] The IC50 values were calculated based on the Chou–Talalay method using Compusyn software [55]. For anti-hormonal treatment, mostly provided as maintenance therapy, we used IC10 values in addition to the IC50.
as §3

[4] = tested on: GCPA113 T1.III patient-derived AGCT cell line; experiment: Cell viability drug screen (Cell Titer Glo 2.0, 72 h), mono- and combination therapy, GCPA113T1.III; settings: GCPA113T1III
[5] = tested on: GCPA007 T2.I patient-derived AGCT cell line; experiment: Cell viability drug screen (Cell Titer Glo 2.0, 72 h), mono- and combination therapy, GCPA007T2.I; settings: GCPA007T2I
Procedure: as §4, §5, §3

[6] = tested on: GCPA096 T1.XV patient-derived AGCT cell line; experiment: Cell viability drug screen (Cell Titer Glo 2.0, 72 h), mono- and combination therapy, GCPA096T1.XV; settings: GCPA096T1XV
[7] = tested on: GCPA096 T1.II patient-derived AGCT cell line; experiment: Cell viability drug screen (Cell Titer Glo 2.0, 72 h), mono- and combination therapy, GCPA096T1.II; settings: GCPA096T1II
AGCT cell lines = experiment: Cell viability drug screen (72 h), summary over AGCT cell lines (12 patient-derived, with or without KGN); assay type: cell-based, human; settings: median over AGCT cell lines; read-out: median IC50 in monotherapy
[8] = tested on: GCPA028 T1.II patient-derived AGCT cell line; experiment: Cell viability drug screen (Cell Titer Glo 2.0, 72 h), mono- and combination therapy, GCPA028
[9] = cited from earlier work
[10] = tested on: GCPA113 T1.I patient-derived AGCT cell line; experiment: Cell viability drug screen (Cell Titer Glo 2.0, 72 h), mono- and combination therapy, GCPA113T1.I; settings: GCPA113T1I
Procedure: as §1, §2, §3

[11] = tested on: GCPA113 T1.II patient-derived AGCT cell line; experiment: Cell viability drug screen (Cell Titer Glo 2.0, 72 h), mono- and combination therapy, GCPA113T1.II; settings: GCPA113T1II
[12] = tested on: GCPA007 T2.IV patient-derived AGCT cell line; experiment: Cell viability drug screen (Cell Titer Glo 2.0, 72 h), mono- and combination therapy, GCPA007T2.IV; settings: GCPA007T2IV
Procedure: as §1, §2, §3

[13] = tested on: KGN cells (AGCT cell line); experiment: Cell viability drug screen (Cell Titer Glo 2.0, 72 h), mono- and combination therapy, KGN
Procedure: KGN was cultured in conditions identical to AGCT-patient-derived cell lines.
as §4, §2

[14] = tested on: GCPA096 T1.XVI patient-derived AGCT cell line; experiment: Cell viability drug screen (Cell Titer Glo 2.0, 72 h), mono- and combination therapy, GCPA096T1.XVI; settings: GCPA096T1XVI
Procedure: as §4, §5, §3

[15] = in combination Carbo+Pacli+6thio2dG
[16] = in combination Carbo+Pacli+Alpelisib
[17] = read-out: IC50 in monotherapy, monotherapy
[18] = drug within Carbo+Pacli+6thio2dG
[19] = drug within Carbo+Pacli+Alpelisib
[20] = read-out: IC50 in monotherapy, single drug, 72 h, unit not given (compared with Cmax/Css in uM)

N.N.O=C([O-])C1(C(=O)[O-])CCC1.[Pt+2] [Carboplatin]
DRI (Fa=0,5) ([1]; in Carbo+Pacli): 1 | DRI (Fa=0,5) ([1]; in Carbo+Pacli+6thio2dG): 0.7515 | DRI (Fa=0,5) ([1]; in Carbo+Pacli+Alpelisib): 9.921 | DRI (Fa=0,5) ([2]; in combination Carbo+Pacli): 1.8 | DRI (Fa=0,5) [2, 15]: 2.92 | DRI (Fa=0,5) [2, 16]: 7.45 | IC50 [2, 17]: 257 µM | DRI (Fa=0,5) ([3]; drug within Carbo+Pacli): 1.19 | DRI (Fa=0,5) [3, 18]: 4.7 | DRI (Fa=0,5) [3, 19]: 17.09 | IC50 [3, 20]: > 500 µM | DRI (Fa=0,5) ([4]; drug within Carbo+Pacli): 1.76 | DRI (Fa=0,5) [4, 18]: 1.97 | DRI (Fa=0,5) [4, 19]: 35.75 | IC50 [4, 17]: 358 µM | DRI (Fa=0,5) ([5]; in Carbo+Pacli (10:1)): 4.425 | DRI (Fa=0,5) ([5]; in Carbo+Pacli+6thio2dG (10:1:1)): 2.54 | DRI (Fa=0,5) ([5]; in Carbo+Pacli+Alpelisib (10:1:2)): 230.67 | IC50 ([5]; read-out: IC50 in monotherapy, cell viability 72 h after drug application): > 500 µM | DRI (Fa=0,5) ([6]; drug within Carbo+Pacli): 0.85 | DRI (Fa=0,5) [6, 18]: 2.35 | DRI (Fa=0,5) [6, 19]: 7.71 | IC50 [6, 20]: 265 µM | DRI (Fa=0,5) ([7]; drug within Carbo+Pacli): 1.11 | DRI (Fa=0,5) [7, 18]: 2.3 | DRI (Fa=0,5) [7, 19]: 5.75 | IC50 [7, 20]: 168 µM | IC50 (AGCT cell lines): 343 µM | DRI (Fa=0,5) ([8]; GCPA028, in combination Carbo+Pacli): 0.51 | DRI (Fa=0,5) ([8]; GCPA028, in combination Carbo+Pacli+6thio2dG): 0.29 | DRI (Fa=0,5) ([8]; GCPA028, in combination Carbo+Pacli+Alpelisib): 41.26 | IC50 ([8]; read-out: IC50 in monotherapy, GCPA028, monotherapy): > 500 µM | Cmax/Css plasma (Log 10) ([9]; human maximum or steady state plasma concentration, log10 of the uM value): 2.13 Log 10 | Cmax/Css plasma (Log 10) ([9]; human plasma Cmax/Css, log10 of uM value, from phase I/II clinical trials): 2.13 Log 10 | Cmax/Css plasma (Log 10) ([9]; human plasma maximum/steady state concentration, ref phase I/II clinical trials): 2.13 Log 10 | Cmax/Css plasma (Log 10) ([9]; human plasma, maximum or steady state concentration, log10 of uM value): 2.13 | Cmax/Css plasma (Log 10) ([9]; human plasma, log10 of uM, phase I/II trials): 2.13 | Cmax ([9]; read-out: Cmax (maximum drug concentration achieved in plasma), human plasma, phase I/II studies): 135 µM | Cmax ([9]; read-out: Cmax/Css plasma, human maximum or steady state plasma concentration): 135 µM | Cmax ([9]; read-out: Cmax/Css plasma, human plasma Cmax/Css, from phase I/II clinical trials): 135 µM | Cmax ([9]; read-out: Cmax/Css plasma, human plasma maximum/steady state concentration, ref phase I/II clinical trials): 135 µM | Cmax ([9]; read-out: Cmax/Css plasma, human plasma, maximum or steady state concentration): 135 µM | Cmax ([9]; read-out: Cmax/Css plasma, human plasma, phase I/II trials): 135 µM | DRI (Fa=0,5) ([10]; in Carbo+Pacli): 1.12 | DRI (Fa=0,5) ([10]; in Carbo+Pacli+6thio2dG): 2.55 | DRI (Fa=0,5) ([10]; in Carbo+Pacli+Alpelisib): 32.56 | IC50 [10, 17]: > 500 µM | DRI (Fa=0,5) ([11]; drug within Carbo+Pacli): 1.06 | DRI (Fa=0,5) [11, 18]: 1.33 | DRI (Fa=0,5) [11, 19]: 4.67 | IC50 [11, 17]: 276 µM | DRI (Fa=0,5) ([12]; in combination Carbo+Pacli): 2.73 | DRI (Fa=0,5) [12, 15]: 1.36 | DRI (Fa=0,5) [12, 16]: 37.92 | IC50 [12, 17]: > 500 µM | DRI (Fa=0,5) ([13]; drug within Carbo+Pacli): 5.1507 | DRI (Fa=0,5) [13, 18]: 2.192 | DRI (Fa=0,5) [13, 19]: 26.6538 | IC50 [13, 17]: 297 µM | DRI (Fa=0,5) ([14]; in Carbo+Pacli): 0.64 | DRI (Fa=0,5) ([14]; in Carbo+Pacli+6thio2dG): 0.59 | DRI (Fa=0,5) ([14]; in Carbo+Pacli+Alpelisib): 2.39 | IC50 [14, 17]: 144 µM
